Measured values as given in US20260274894A1, “CYCLIC POLYPEPTIDE COMPOUND AND USE THEREOF” (BIVISION PHARMACEUTICALS, INC., priority 2023, published 2026).
Like-named read-outs stand apart in the source and are kept apart here. Numbered stars: 1 amine (or outer) side, 2 acyl side, 3 side chain; on linkers, the order of the positions; unused ones are H or OH. Bridge positions count the residues as written; N and C are the ends. Square brackets hold non-standard residues; d marks the D form. Side chains are listed from the residue outwards. Peptide text beside a SMILES is read from it. * marks the point of attachment. ξ: configuration not given here. NH(CH2)2O(CH2)2NHDOTA = O=C(O)CN1CCN(CC(=O)O)CCN(CC(=O)NCCOCCN*)CCN(CC(=O)O)CC1; X5 = CCCCCC(=O)N[C@@H](CSCc1cccc(C[*:2])c1)C(=O)N1CCC[C@@H](NC(=O)[*:1])C1; DOTA = O=C(O)CN1CCN(CC(=O)O)CCN(CC(=O)*)CCN(CC(=O)O)CC1; Azetidine3carboxylic = O=C(C1CN([*:1])C1)[*:2]; mXylylene = c1cc(C[*:1])cc(C[*:2])c1; Cha = N[C@@H](CC1CCCCC1)C(=O)O; Hexanoyl = CCCCCC(=O)*; AEEA = NCCOCCOCC(=O)O; ξP = O=C(O)C1CCCN1

How the values were obtained:
HT1080 2 # = assay: Therapeutic results of ^177Lu-labeled compound in tumor-bearing mice (tumor volume); format: in vivo, Balb/c Nude mice
Experimental: The body weight and tumor size were measured.

[1] = Determination of C Log P (n-octanol/water partition, gamma counts); format: physicochemical
Experimental: Two EP tubes were taken, and 100 μL of saturated n-octanol aqueous solution and 80 µL of pure water were added to each tube, respectively. […] After shaking and mixing for 2 hours, the tubes were centrifuged at room temperature at 2000 rpm/min for 5 minutes. 20 μL was taken from the upper layer (lipid layer) and lower layer (aqueous layer) of each tube, and gamma counts were measured.

Row | SMILES | Tumor volume (mm^3) (HT1080 2 #; Day 0) | Tumor volume (mm^3) (HT1080 2 #; Day 2) | Tumor volume (mm^3) (HT1080 2 #; Day 6) | Tumor volume (mm^3) (HT1080 2 #; Day 9) | Tumor volume (mm^3) (HT1080 2 #; Day 13) | Tumor volume (mm^3) (HT1080 2 #; Day 16) | logP ([1]; read-out: ClogP) | logP [1]
1 | CCCCCC(=O)N[C@H]1CSCc2cc(CSCCNC(=O)CN3CCN(CC(=O)O)CCN(CC(=O)O)CCN(CC(=O)O)CC3)cc(c2)CSC[C@@H](C(=O)O)NC(=O)[C@H](Cc2ccccc2)NC(=O)[C@H](CCC(N)=O)NC(=O)[C@H]([C@@H](C)O)NC(=O)[C@@H]2CCCN2C(=O)[C@@H]2CCCN2C1=O [^177Lu-FAP-2286, metal not drawn, reference compound] | 466.80 ± 118.37 | 630.23 ± 96.79 | 525.29 ± 100.39 | 1,041.55 ± 348.07 mm^3 | 2,345.02 ± 298.66 mm^3 | 3,180.37 ± 697.35 mm^3 | -2.74 | 
2 | CCCCCC(=O)N[C@H]1CSCc2cccc(c2)CSC[C@@H](C(=O)N[C@@H](CCCCNC(=O)COCCOCCNC(=O)CN2CCN(CC(=O)O)CCN(CC(=O)O)CCN(CC(=O)O)CC2)C(=O)O)NC(=O)CNC(=O)[C@H](CC2CCCCC2)NC(=O)[C@H](CCC(N)=O)NC(=O)[C@H]([C@@H](C)O)NC(=O)C2CCCN2C(=O)N[C@@H]2CCCN(C2)C1=O (stereo partly shown) [^177Lu -JHDC15, metal not drawn] ([ξP]TQ[Cha]GCK([AEEA-DOTA])-OH; linker N-6 via X5) |  |  |  |  |  |  | -1.6 | 
3 | CCCCCC(=O)N[C@H]1CSCc2cccc(c2)CSC[C@@H](C(=O)N[C@@H](CCC(=O)NCCOCCNC(=O)CN2CCN(CC(=O)O)CCN(CC(=O)O)CCN(CC(=O)O)CC2)C(=O)O)NC(=O)[C@H](Cc2ccccc2)NC(=O)[C@H](CCC(N)=O)NC(=O)[C@H]([C@@H](C)O)NC(=O)[C@@H]2CCCN2C(=O)C2CN(C2)C1=O [^177Lu -JHDC06, metal not drawn] (Hexanoyl-C[Azetidine3carboxylic]PTQFCE(NH(CH2)2O(CH2)2NHDOTA)-OH; linker 1-7 via mXylylene) |  |  |  |  |  |  |  | -2.69
4 | CCCCCC(=O)N[C@H]1CSCc2cccc(c2)CSC[C@@H](C(=O)N[C@@H](CCCCNC(=O)COCCOCCNC(=O)CN2CCN(CC(=O)O)CCN(CC(=O)O)CCN(CC(=O)O)CC2)C(=O)O)NC(=O)[C@H](CC2CCCCC2)NC(=O)[C@H](CCC(N)=O)NC(=O)[C@H]([C@@H](C)O)NC(=O)[C@@H]2CCCN2C(=O)N[C@@H]2CCCN(C2)C1=O [^177Lu -JHDC14, metal not drawn] (PTQ[Cha]CK([AEEA-DOTA])-OH; linker N-5 via X5) |  |  |  |  |  |  |  | -1.39
5 | CCCCNC(=O)N[C@H]1CSCc2cncc(c2)CSC[C@@H](C(=O)N[C@@H](CCC(=O)NCCN2CCN(C(=O)CN3CCN(CC(=O)O)CCN(CC(=O)O)CCN(CC(=O)O)CC3)CC2)C(=O)O)NC(=O)[C@H](CC2CCCCC2)NC(=O)[C@H](CCC(N)=O)NC(=O)[C@H]([C@@H](C)O)NC(=O)[C@@H]2CCCN2C(=O)C2CN(C2)C1=O (single isomer, unassigned) [^177Lu-JHDC46, metal not drawn] | 400.31 ± 78.63 | 483.08 ± 95.00 | 203.26 ± 49.63 | 168.29 ± 33.83 mm^3 | 313.94 ± 119.95 mm^3 | 686.05 ± 297.66 mm^3 |  | 
